# Data: ChEMBL document CHEMBL4184269, “Novel aromatic sulfonyl naphthalene-based boronates as 20S proteasome inhibitors” (Bioorg Med Chem, 2018)
# Legend:
# [1] = biological target: T1, Proteasome Macropain subunit MB1 (Homo sapiens) (UniProt P28074); assay: Inhibition of chymotrypsin-like activity of human 20S proteasome at 100 nM using Suc-Leu-Leu-Val-Tyr-AMC as substrate by fluorescence assay relative to control
# T1 sequence (whole entry): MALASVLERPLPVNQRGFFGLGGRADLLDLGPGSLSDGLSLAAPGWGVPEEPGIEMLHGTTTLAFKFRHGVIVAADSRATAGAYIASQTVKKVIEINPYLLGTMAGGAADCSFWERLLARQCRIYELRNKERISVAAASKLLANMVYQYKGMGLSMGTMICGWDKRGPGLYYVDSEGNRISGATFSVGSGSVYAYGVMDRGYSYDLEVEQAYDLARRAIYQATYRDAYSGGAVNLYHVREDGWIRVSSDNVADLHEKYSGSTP
# MDA-MB-231 = assay: Antiproliferative activity against human MDA-MB-231 cells after 72 hrs by SRB assay; type: functional, cell-based
# MCF7 = assay: Antiproliferative activity against human MCF7 cells after 72 hrs by SRB assay; type: functional, cell-based
# A549 = assay: Antiproliferative activity against human A549 cells after 72 hrs by SRB assay; type: functional, cell-based
# [2] = Metabolic stability in Sprague-Dawley rat liver microsomes assessed as parent compound remaining at […] preincubated for 5 mins followed by NADPH addition measured after 40 mins by HPLC analysis; type: ADME, microsome; settings: read-out: Stability
# [3] = biological target: T1, Proteasome Macropain subunit MB1 (Homo sapiens); assay: Inhibition of chymotrypsin-like activity of human 20S proteasome at 10 nM using Suc-Leu-Leu-Val-Tyr-AMC as substrate by fluorescence assay relative to control
inhibition [1] [%],"IC50 (MDA-MB-231; Homo sapiens, MDA-MB-231, 72 h) [µM]","IC50 (MCF7; Homo sapiens, MCF7, 72 h) [µM]",SMILES,other results
41.5,–,–,CC(C)C[C@H](NC(=O)C(C)Sc1cc(NS(=O)(=O)c2ccc(Cl)cc2)c2ccccc2c1O)B(O)O (stereo in doubt; 3c) [listing 1 of 2 here],–
6.86,–,–,O=C(O)CSc1cc(NS(=O)(=O)c2cccs2)c2ccccc2c1O,–
40.8,4.45,8.66,CC(=O)Nc1ccc(S(=O)(=O)Nc2cc(SCC(=O)N[C@@H](CC(C)C)B(O)O)c(O)c3ccccc23)cc1,–
38.4,2.12,6.62,CC(=O)Nc1ccc(S(=O)(=O)Nc2cc(SCCC(=O)N[C@@H](CC(C)C)B(O)O)c(O)c3ccccc23)cc1,–
–,–,–,CC(C)C[C@H](NC(=O)C(C)Sc1cc(NS(=O)(=O)c2ccccc2)c2ccccc2c1O)B(O)O (stereo in doubt; 3b-1) [listing 1 of 2 here],IC50 (MDA-MB-231; mda-mb-231): 5.11 µM; IC50 (MCF7; mcf7): 11.3 µM
25.4,–,–,CC(C)C[C@H](NC(=O)C(C)Sc1cc(NS(=O)(=O)c2ccccc2)c2ccccc2c1O)B(O)O (stereo in doubt; 3b-1) [listing 2 of 2 here],–
41.1,7.45,14.7,CC(C)C[C@H](NC(=O)C(C)Sc1cc(NS(=O)(=O)c2cccs2)c2ccccc2c1O)B(O)O (stereo not given in full),–
36.6,14,12.8,Cc1ccc(S(=O)(=O)Nc2cc(SCC(=O)N[C@@H](CC(C)C)B(O)O)c(O)c3ccccc23)cc1,–
38.3,4.45,6.47,CC(C)C[C@H](NC(=O)CCSc1cc(NS(=O)(=O)c2cccs2)c2ccccc2c1O)B(O)O,–
39.4,–,–,CC(C)C[C@H](NC(=O)C(C)Sc1cc(NS(=O)(=O)c2ccc(Cl)cc2)c2ccccc2c1O)B(O)O (stereo in doubt; 3c-1) [listing 1 of 2 here],–
–,6.15,10.1,CC(C)C[C@H](NC(=O)C(C)Sc1cc(NS(=O)(=O)c2ccc(Cl)cc2)c2ccccc2c1O)B(O)O (stereo in doubt; 3c) [listing 2 of 2 here],IC50 (A549): 16.5 µM
35.5,8.13,8.61,Cc1ccc(S(=O)(=O)Nc2cc(SC(C)C(=O)N[C@@H](CC(C)C)B(O)O)c(O)c3ccccc23)cc1 (stereo not given in full),–
45.1,6.19,10.4,CC(C)C[C@H](NC(=O)CSc1cc(NS(=O)(=O)c2ccc(Cl)cc2)c2ccccc2c1O)B(O)O,–
54.2,6.15,6.94,Cc1ccc(S(=O)(=O)Nc2cc(SCCC(=O)N[C@@H](CC(C)C)B(O)O)c(O)c3ccccc23)cc1,remaining at 40 min [2]: 56%
33.3,6.52,9.45,CC(C)C[C@H](NC(=O)CSc1cc(NS(=O)(=O)c2cccs2)c2ccccc2c1O)B(O)O,–
–,3.12,18.4,CC(C)C[C@H](NC(=O)[C@H](Cc1ccccc1)NC(=O)c1cnccn1)B(O)O [BORTEZOMIB],inhibition [3]: 51.2%; remaining at 40 min [2]: 30%
–,–,16.5,CC(C)C[C@H](NC(=O)C(C)Sc1cc(NS(=O)(=O)c2ccccc2)c2ccccc2c1O)B(O)O (stereo in doubt; 3b) [listing 1 of 2 here],IC50 (MDA-MB-231; mda-mb-231): 11.1 µM; IC50 (A549): 4.48 µM
–,–,–,CC(C)C[C@H](NC(=O)C(C)Sc1cc(NS(=O)(=O)c2ccc(Cl)cc2)c2ccccc2c1O)B(O)O (stereo in doubt; 3c-1) [listing 2 of 2 here],IC50 (MDA-MB-231; mda-mb-231): 6.46 µM; IC50 (MCF7; mcf7): 10.7 µM
4.89,–,–,C[S+](C)[O-],–
45.6,4.2,7.46,CC(C)C[C@H](NC(=O)CCSc1cc(NS(=O)(=O)c2ccccc2)c2ccccc2c1O)B(O)O,–
22.6,–,–,CC(C)C[C@H](NC(=O)C(C)Sc1cc(NS(=O)(=O)c2ccccc2)c2ccccc2c1O)B(O)O (stereo in doubt; 3b) [listing 2 of 2 here],–
27.4,2.8,8.91,CC(=O)Nc1ccc(S(=O)(=O)Nc2cc(SC(C)C(=O)N[C@@H](CC(C)C)B(O)O)c(O)c3ccccc23)cc1 (stereo not given in full),–
32.5,10.6,4.16,CC(C)C[C@H](NC(=O)CSc1cc(NS(=O)(=O)c2ccccc2)c2ccccc2c1O)B(O)O,–
52.5,4.09,6.91,CC(C)C[C@H](NC(=O)CCSc1cc(NS(=O)(=O)c2ccc(Cl)cc2)c2ccccc2c1O)B(O)O,–
